Measured values from paper PMC4385830, “Group I Paks as therapeutic targets in NF2-deficient meningioma” (Oncotarget, 2015).

Key:
Assay in all cases: Kinase selectivity, Z'-LYTE
Assay type in all cases: biochemical
[1] = biological target: T1, MAPK11 (p38 beta) (Homo sapiens, UniProt Q15759)
T1 construct: purchased Invitrogen (Life Technologies) SelectScreen Z'-LYTE
Method in brief: (§1)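 Each recombinant kinase phosphorylates a peptide substrate under conditions optimized for that enzyme. A protease then cleaves only non-phosphorylated peptide, and the fluorescence change reports kinase activity.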

[2] = biological target: T2, ADRBK2 (GRK3) (Homo sapiens, UniProt P35626)
T2 construct: purchased Invitrogen (Life Technologies) SelectScreen Z'-LYTE
T2 sequence (P35626 1-688): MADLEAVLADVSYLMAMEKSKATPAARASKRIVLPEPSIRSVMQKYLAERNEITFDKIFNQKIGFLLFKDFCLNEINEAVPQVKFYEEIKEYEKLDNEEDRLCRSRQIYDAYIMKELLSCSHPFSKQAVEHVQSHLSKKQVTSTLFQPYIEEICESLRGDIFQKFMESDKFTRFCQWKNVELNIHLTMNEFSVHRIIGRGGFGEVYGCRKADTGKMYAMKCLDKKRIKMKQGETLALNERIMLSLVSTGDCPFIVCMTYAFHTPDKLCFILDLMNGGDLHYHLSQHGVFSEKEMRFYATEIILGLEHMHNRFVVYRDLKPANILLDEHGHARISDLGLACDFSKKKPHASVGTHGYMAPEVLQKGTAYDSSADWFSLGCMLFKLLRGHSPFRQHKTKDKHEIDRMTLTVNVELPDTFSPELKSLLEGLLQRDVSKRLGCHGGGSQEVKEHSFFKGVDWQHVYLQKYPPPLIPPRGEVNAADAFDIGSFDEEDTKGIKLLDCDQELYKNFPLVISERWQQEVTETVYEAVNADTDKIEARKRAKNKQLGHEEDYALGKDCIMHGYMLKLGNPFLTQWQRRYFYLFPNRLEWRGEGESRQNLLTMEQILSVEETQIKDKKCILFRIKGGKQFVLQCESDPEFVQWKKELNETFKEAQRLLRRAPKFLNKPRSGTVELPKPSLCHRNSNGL
Method in brief: as §1

[3] = biological target: T3, PAK2 (PAK65) (Homo sapiens, UniProt Q13177)
T3 construct: purchased Invitrogen (Life Technologies) SelectScreen Z'-LYTE
T3 sequence (Q13177 whole entry): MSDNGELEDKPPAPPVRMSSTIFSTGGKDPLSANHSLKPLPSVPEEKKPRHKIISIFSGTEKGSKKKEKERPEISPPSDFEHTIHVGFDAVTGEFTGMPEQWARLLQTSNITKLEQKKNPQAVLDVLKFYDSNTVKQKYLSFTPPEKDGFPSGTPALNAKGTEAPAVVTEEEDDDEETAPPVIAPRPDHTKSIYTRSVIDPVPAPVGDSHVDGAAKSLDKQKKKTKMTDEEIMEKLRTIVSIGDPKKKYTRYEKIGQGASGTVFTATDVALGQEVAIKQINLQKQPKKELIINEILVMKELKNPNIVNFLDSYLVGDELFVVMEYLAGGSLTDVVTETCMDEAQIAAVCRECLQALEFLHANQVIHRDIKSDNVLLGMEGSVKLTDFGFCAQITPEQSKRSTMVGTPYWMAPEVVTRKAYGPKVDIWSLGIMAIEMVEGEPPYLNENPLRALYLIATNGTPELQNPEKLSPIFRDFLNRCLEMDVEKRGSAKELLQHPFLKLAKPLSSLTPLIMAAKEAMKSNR
Method in brief: as §1

[4] = biological target: T4, DYRK1A (Homo sapiens, UniProt Q13627)
T4 construct: purchased Invitrogen (Life Technologies) SelectScreen Z'-LYTE
Method in brief: as §1

[5] = biological target: T5, RAF1 (cRAF) Y340D Y341D (Homo sapiens, UniProt P04049, Y340D/Y341D)
T5 construct: purchased Invitrogen (Life Technologies) SelectScreen Z'-LYTE
Method in brief: as §1

[6] = biological target: T6, ROCK1 (Homo sapiens, UniProt Q13464)
T6 construct: purchased Invitrogen (Life Technologies) SelectScreen Z'-LYTE
T6 sequence (Q13464 whole entry): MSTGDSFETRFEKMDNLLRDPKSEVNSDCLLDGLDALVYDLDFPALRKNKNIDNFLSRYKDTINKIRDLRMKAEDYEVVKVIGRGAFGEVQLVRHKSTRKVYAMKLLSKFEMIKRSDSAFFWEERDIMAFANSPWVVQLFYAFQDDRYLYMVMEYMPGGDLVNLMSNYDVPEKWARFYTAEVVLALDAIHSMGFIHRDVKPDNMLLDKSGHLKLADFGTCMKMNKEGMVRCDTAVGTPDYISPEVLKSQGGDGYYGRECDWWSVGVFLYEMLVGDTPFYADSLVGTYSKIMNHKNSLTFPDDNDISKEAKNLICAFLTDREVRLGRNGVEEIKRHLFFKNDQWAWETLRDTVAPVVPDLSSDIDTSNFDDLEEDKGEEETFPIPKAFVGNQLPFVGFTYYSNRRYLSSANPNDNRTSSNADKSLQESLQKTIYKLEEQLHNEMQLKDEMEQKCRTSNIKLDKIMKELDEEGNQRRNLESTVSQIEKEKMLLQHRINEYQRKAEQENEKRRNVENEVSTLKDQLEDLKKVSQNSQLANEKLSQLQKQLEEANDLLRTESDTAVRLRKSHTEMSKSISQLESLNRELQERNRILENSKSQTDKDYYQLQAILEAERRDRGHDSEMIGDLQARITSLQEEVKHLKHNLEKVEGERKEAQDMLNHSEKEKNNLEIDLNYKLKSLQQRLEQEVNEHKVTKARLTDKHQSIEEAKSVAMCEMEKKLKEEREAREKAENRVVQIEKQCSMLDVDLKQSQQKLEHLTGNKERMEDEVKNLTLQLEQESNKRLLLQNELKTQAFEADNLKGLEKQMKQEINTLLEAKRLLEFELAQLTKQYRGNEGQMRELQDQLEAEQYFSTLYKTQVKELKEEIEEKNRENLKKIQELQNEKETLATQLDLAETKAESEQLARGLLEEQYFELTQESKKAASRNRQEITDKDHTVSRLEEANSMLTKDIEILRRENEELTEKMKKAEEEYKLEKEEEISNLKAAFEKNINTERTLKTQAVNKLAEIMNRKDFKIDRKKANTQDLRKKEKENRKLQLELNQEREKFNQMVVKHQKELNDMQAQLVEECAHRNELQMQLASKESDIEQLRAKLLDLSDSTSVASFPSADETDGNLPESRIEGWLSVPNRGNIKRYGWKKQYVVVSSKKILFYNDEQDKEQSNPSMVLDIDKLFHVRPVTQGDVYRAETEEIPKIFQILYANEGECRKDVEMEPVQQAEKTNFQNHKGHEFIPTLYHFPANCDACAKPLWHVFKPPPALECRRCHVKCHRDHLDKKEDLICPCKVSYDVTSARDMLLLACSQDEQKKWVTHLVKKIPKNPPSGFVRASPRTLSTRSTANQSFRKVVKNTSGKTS
Method in brief: as §1

[7] = biological target: T7, MAPK8 (JNK1) (Homo sapiens, UniProt P45983)
T7 construct: purchased Invitrogen (Life Technologies) SelectScreen Z'-LYTE
Method in brief: as §1

[8] = biological target: T8, MAPK10 (JNK3) (Homo sapiens, UniProt P53779)
T8 construct: purchased Invitrogen (Life Technologies) SelectScreen Z'-LYTE
T8 sequence (P53779 whole entry): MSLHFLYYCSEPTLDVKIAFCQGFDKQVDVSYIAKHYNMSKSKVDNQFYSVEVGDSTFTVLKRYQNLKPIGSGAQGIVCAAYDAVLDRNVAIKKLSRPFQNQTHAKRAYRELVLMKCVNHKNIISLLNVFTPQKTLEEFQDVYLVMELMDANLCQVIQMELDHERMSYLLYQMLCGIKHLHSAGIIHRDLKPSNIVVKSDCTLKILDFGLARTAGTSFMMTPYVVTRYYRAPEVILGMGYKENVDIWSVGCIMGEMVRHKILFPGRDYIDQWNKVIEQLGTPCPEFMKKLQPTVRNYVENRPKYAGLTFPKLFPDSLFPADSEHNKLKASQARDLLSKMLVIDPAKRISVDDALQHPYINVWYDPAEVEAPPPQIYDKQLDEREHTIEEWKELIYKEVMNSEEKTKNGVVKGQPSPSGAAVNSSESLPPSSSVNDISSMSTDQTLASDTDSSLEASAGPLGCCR
Method in brief: as §1

[9] = biological target: T9, P1K3C2B (P13K-C2-beta) (Homo sapiens, UniProt O00750)
T9 construct: purchased Invitrogen (Life Technologies) SelectScreen Z'-LYTE
T9 sequence (O00750 whole entry, stated change not applied): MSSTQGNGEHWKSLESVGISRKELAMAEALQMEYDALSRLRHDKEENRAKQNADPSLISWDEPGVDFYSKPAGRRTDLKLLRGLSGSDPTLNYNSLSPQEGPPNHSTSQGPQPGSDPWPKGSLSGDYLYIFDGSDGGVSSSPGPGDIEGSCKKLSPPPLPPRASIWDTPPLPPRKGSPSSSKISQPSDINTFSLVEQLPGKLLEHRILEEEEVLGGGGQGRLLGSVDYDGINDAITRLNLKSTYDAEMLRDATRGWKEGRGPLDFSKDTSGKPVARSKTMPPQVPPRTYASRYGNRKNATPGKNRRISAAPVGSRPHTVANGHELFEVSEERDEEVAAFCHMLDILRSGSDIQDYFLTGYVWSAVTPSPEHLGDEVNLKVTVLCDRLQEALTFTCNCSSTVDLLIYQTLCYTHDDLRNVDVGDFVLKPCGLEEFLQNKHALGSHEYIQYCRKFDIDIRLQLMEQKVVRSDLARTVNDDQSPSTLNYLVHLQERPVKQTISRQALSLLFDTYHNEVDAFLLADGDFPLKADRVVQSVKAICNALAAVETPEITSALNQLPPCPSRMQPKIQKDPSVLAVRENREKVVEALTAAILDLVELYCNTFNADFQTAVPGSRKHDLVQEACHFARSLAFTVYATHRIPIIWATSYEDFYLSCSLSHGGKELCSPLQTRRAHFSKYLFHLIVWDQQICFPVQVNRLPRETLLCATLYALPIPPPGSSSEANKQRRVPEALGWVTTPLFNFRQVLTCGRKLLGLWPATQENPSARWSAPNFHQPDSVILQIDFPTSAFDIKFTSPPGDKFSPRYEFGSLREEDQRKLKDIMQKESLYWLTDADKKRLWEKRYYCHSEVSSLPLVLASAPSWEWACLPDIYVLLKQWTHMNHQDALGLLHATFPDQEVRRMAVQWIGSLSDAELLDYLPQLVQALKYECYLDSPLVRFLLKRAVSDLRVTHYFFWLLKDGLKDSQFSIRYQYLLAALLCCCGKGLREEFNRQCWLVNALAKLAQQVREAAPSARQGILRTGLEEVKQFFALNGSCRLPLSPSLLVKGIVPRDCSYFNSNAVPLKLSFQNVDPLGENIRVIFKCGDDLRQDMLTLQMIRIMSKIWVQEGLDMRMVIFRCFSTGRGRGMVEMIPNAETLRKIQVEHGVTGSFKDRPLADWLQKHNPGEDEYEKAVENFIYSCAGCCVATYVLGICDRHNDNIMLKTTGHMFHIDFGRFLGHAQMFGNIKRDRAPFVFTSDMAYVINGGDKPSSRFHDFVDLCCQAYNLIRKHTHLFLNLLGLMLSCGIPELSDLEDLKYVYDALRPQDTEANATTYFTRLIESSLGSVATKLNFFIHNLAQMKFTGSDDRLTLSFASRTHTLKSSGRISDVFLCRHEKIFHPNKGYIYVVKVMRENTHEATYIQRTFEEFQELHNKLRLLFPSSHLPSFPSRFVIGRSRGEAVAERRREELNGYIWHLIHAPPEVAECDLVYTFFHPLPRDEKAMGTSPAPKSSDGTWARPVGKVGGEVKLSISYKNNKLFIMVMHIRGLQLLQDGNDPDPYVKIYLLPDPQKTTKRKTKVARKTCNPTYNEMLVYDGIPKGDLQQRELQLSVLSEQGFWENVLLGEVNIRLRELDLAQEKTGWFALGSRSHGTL
Method in brief: as §1

[10] = biological target: T10, FLT3 (Homo sapiens, UniProt P36888)
T10 construct: purchased Invitrogen (Life Technologies) SelectScreen Z'-LYTE
T10 sequence (P36888 27-993): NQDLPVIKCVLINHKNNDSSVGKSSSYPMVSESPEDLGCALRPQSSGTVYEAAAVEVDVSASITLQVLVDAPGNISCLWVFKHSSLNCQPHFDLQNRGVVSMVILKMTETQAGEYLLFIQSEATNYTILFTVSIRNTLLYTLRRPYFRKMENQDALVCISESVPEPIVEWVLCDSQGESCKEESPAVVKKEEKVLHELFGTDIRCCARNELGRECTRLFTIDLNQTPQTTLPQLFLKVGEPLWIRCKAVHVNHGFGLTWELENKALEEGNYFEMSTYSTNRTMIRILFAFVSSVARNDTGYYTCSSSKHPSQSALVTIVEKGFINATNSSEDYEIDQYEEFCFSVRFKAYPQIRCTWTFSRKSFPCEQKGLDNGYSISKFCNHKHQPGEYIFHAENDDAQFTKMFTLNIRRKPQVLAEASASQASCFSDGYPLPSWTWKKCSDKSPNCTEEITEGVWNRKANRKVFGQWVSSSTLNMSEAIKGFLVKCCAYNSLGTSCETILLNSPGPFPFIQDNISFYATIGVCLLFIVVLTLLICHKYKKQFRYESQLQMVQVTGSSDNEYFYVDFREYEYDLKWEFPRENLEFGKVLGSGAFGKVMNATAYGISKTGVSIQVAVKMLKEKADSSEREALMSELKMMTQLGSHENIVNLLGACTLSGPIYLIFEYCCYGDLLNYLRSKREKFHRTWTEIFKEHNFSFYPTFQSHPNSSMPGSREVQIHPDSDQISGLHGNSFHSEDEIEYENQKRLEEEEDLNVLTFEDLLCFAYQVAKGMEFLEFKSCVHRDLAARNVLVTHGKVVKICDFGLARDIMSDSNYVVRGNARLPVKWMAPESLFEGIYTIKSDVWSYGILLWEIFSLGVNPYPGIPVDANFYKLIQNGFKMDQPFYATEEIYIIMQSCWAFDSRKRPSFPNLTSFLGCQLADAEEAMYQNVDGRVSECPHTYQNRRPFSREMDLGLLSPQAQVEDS
Method in brief: as §1

[11] = biological target: T11, KIT (Homo sapiens, UniProt P10721)
T11 construct: purchased Invitrogen (Life Technologies) SelectScreen Z'-LYTE
Method in brief: as §1

[12] = biological target: T12, PIM2 (Homo sapiens, UniProt Q9P1W9)
T12 construct: purchased Invitrogen (Life Technologies) SelectScreen Z'-LYTE
Method in brief: as §1

[13] = biological target: T13, PDGFRB (PDGFR beta) (Homo sapiens, UniProt P09619)
T13 construct: purchased Invitrogen (Life Technologies) SelectScreen Z'-LYTE
T13 sequence (P09619 33-1106): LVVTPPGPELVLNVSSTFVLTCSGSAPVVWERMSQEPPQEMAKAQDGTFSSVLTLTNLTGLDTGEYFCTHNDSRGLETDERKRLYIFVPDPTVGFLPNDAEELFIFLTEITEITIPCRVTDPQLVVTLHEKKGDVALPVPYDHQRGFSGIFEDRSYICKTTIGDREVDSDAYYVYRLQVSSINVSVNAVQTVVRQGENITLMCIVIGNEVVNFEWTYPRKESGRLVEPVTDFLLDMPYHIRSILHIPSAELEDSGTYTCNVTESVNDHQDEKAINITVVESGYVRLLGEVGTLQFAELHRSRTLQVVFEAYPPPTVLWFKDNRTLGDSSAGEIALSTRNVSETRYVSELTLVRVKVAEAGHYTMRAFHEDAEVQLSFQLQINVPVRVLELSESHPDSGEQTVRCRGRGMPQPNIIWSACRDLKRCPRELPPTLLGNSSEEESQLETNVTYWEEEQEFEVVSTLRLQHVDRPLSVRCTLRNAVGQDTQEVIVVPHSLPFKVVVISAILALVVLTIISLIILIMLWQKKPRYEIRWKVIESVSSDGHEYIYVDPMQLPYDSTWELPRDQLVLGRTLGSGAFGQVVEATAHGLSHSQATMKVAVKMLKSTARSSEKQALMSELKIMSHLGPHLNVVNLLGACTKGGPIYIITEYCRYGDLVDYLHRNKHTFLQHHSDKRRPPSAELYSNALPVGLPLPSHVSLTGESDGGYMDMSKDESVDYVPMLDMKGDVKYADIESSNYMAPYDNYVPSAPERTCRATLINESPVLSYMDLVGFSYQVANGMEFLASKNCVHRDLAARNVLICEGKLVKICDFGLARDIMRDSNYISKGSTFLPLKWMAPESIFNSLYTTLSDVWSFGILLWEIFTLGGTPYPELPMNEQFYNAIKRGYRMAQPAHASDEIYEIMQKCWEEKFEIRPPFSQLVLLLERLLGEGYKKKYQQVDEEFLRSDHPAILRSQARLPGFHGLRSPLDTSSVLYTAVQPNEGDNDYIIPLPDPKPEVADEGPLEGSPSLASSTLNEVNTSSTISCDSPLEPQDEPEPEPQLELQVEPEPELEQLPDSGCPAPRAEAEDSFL
Method in brief: as §1

[14] = biological target: T14, FRAP1 (mTOR) (Homo sapiens, UniProt P42345)
T14 construct: purchased Invitrogen (Life Technologies) SelectScreen Z'-LYTE
Method in brief: as §1

[15] = biological target: T15, EGFR (ErbB1) (Homo sapiens, UniProt P00533)
T15 construct: purchased Invitrogen (Life Technologies) SelectScreen Z'-LYTE
Method in brief: as §1

| Compound | % inhibition of activity [1] [%] | % inhibition of activity [2] [%] | % inhibition of activity [3] [%] | % inhibition of activity [4] [%] | % inhibition of activity [5] [%] | % inhibition of activity [6] [%] | % inhibition of activity [7] [%] | % inhibition of activity [8] [%] | % inhibition of activity [9] [%] | % inhibition of activity [10] [%] | % inhibition of activity [11] [%] | % inhibition of activity [12] [%] | % inhibition of activity [13] [%] | % inhibition of activity [14] [%] | % inhibition of activity [15] [%] |
| --- | --- | --- | --- | --- | --- | --- | --- | --- | --- | --- | --- | --- | --- | --- | --- |
| CCn1c(=O)c(-c2ccc(-c3noc(C)n3)cc2Cl)cc2cnc(Nc3ccc(C4CCN(C)CC4)cc3)nc21 [Frax716] | 2 | 2 | 100 | 3 | 74 | 2 | 30 | 12 | −1 | 92 | 77 | 1 | 82 | 1 | 20 |
| CCn1c(=O)c(-c2ccc(-c3cncc(C)n3)cc2Cl)cc2cnc(NCCC3CCN(C)CC3)nc21 [Frax1036] | 6 | −1 | 98 | 5 | 11 | −2 | 79 | 45 | 2 | 10 | 32 | 3 | 83 | 0 | 2 |
| Cc1nc(Nc2[nH]nc3c2CN(C(=O)N[C@H](CN(C)C)c2ccccc2)C3(C)C)c2sccc2n1 [PF3758309, reference compound] | 8 | 4 | 100 | 6 | 26 | 5 | 9 | 5 | 8 | 78 | 7 | 4 | 14 | 0 | 4 |
